B1: FGF7: Recombinant human FGF7 from Sigma (protein, UniProt P21781 32-194, looked up)
Fibroblast growth factor 7: CNDMTPEQMATNVNCSSPERHTRSYDYMEGGDIRVRRLFCRTQWYLRIDKRGKVKGTQEMKNNYNIMEIRTVAVGIVAIKGVESEFYLAMNKEGKLYAKKECNEDCNFKELILENHYNTYASAKWTHNGGEMFVALNQKGIPVRGKKTKKEQKTAHFLPMAIT

Legend:
[1] = system: Caco-2 cells; experiment: Transepithelial resistance (TER) of Caco-2 monolayers; format: cell-based, human; details: for inhibited TER increases: 100 ng/ml ligand, three days (72 hours) after addition, percent reduction in TER compared to PBS treated cells; for time after treatment at which reductions in TER were evident: Caco-2 monolayers, TER followed over 48 hours; for reduced resistance on day 5: ligand added on day 0 and day 2, compared to untreated cells
Experimental: Caco-2 cells were grown close to confluence, and T84 cells were grown to confluence. The apical chambers of transwell plates with 6.5 mm diameter and 3 μm pore size filters were pretreated with 50 μl of 45 μg/ml collagen IV in 60% ethanol 24 hours prior to plating and incubated overnight at room temperature. After reaching confluence, cells were washed with 20 ml PBS and treated with 3.5 ml trypsin-EDTA per 175 cm^2 flask for 20-60 min at 37° C. until cells detached. Cells were resuspended in 16.5 ml media appropriate to the cell type. Each apical chamber was supplemented with 82 μl cell solution. The basolateral chamber was filled with 1 ml propagation media. Filters were fed with new media every two days over the course of experiments.
Caco-2 and T84 cells were allowed to grow on transwells to form monolayers. Monolayer formation was examined every other day by light microscopy as well as by transepithelial resistance (TER) measurements using an EVOM ohmmeter (World Precision Instruments, Sarasota, Fla.). After monolayer formation, cells were treated with 100 ng/ml FGF1, 100 ng/ml FGF2, 100 ng/ml FGF7 or an equivalent volume (10 μl) of PBS. TER measurements were made either after 72 hours or at each of the 30 minutes, 1 hour, 2 hours, 4 hours, 9 hours, 24 hours and 48 hours timepoints. To determine the effects of multiple additions of ligand, FGFs or PBS were added initially and again after 2 days, and TER measurements were made after 0, 2 and 5 days.
To probe the mechanism by which various FGFs induced cell mediated effects, various media treatments were employed. Ammonium tetrathiomolybdate (TM) was added 24 hours prior to the addition of ligands to yield a final concentration of 200 μM, sufficient to prevent the release of FGF1 [3]. Similarly, sodium chlorate, which reduces cell HSPGs and the sulfation of associated HSGAGs, was added 24 hours prior to the addition of ligands to yield a final concentration of 50 mM [33,34]. Antibodies and kinase inhibitors were added immediately prior to ligands. Antibodies to FGF1, FGFR1 and FGFR3 were added at a 1:100 dilution. Kinase inhibitors were added to yield final concentrations of 50 μM LY294002, 20 μM PD98059, 1 μM SB203580. All experiments were performed in triplicate.
Caco-2 cells were grown to just prior to confluency. The apical chambers of transwell plates with 6.5 mm diameter and 3 μm pore size filters were pretreated with 50 μl of 45 μg/ml mouse recombinant collagen IV (BD Biosciences, Bedford, Mass.) in 60% ethanol 24 hours prior to plating. Plates were incubated overnight at room temperature. Just prior to confluency, cells were washed with 20 ml phosphate buffered saline (PBS) and treated with 3.5 ml trypsin-EDTA per 175 cm^2 flask for 20-60 min at 37° C., until cells detached. Cells were resuspended in 16.5 ml media appropriate to the cell type. Each apical chamber was supplemented with 82 μl cell solution. The basolateral chamber was filled with 1 ml propagation media. Filters were fed with new media every two days over the course of experiments.
Caco-2 cells were allowed to grow on transwells to form monolayers. Monolayer formation was examined every other day by light microscopy as well as by TER measurements using an EVOM ohmmeter (World Precision Instruments, Sarasota, Fla.). After monolayer formation, cells were treated with 100 ng/ml recombinant human FGF1 (Amgen, Thousand Oaks, Calif.), 100 ng/ml recombinant human FGF2 [1], 100 ng/ml recombinant human FGF7 (Sigma, St. Louis, Mo.), or an equivalent volume (10 μl) of PBS. TER measurements were made after each of 30 minutes, 1 hour, 2 hours, 4 hours, 9 hours, 24 hours and 48 hours.
To probe the mechanism by which various FGFs induced cellular mediated effects, various media treatments were employed. TM was added 24 hours prior to the addition of ligands to yield a final concentration of 200 μM, sufficient to prevent the release of FGF1 [3]. […]

[2] = system: T84 cells; experiment: T84 proliferation assay (whole cell number); format: cell-based, human; details: for increased whole cell number: 100 ng/ml ligand, three days, vs PBS control
Experimental: Caco-2 cells were grown to just prior to confluence, and T84 cells were grown to confluence. Each flask was washed with 20 ml PBS and treated with 3 ml trypsin-EDTA at 37° C. for 20-60 minutes until cells detached. Cells were centrifuged for 3 minutes at 195×g. The supernatant was aspirated, and the cells were resuspended in 10 ml media. The cell density was measured using an electronic cell counter, and the suspension was diluted to 50,000 cells/ml. The suspension was plated at 1 ml/well into 12-well tissue culture plates. After a 24 hour incubation in a 5% CO2, 37° C. humidified incubator, the media was aspirated, the wells were washed with serum free media, and the cells were supplemented with media containing 0.1% FBS. The wells were then supplemented with 10 μl PBS, 50 mM sodium chlorate, or 200 μM TM, and incubated for 24 hours. Subsequently, cells were supplemented with 100 ng/ml FGF1, FGF2, FGF7, or 10 μl PBS, and incubated for 72 hours. Wells were then washed twice with PBS and treated with 0.5 ml trypsin-EDTA/well and incubated at 37° C. until cells detached. Whole cell number was determined using an electronic cell counter. Data was averaged over three experiments, each consisting of four wells per condition.

Molecule	inhibited TER increases ([1]; Caco-2 cells)	reduced TER at 48 hours ([1]; Caco-2 cells, 100 ng/ml, 48 hours)	effect of added agent on FGF-induced reduction in TER ([1]; Caco-2 cells, agent given before or with 100 ng/ml FGFs (TM 200 μM, sodium chlorate 50 mM, LY294002 50 μM, PMA 100 ng/ml, antibodies 1:100))	reduction of TER in TM treated cells ([1]; Caco-2 monolayers pretreated with 200 μM TM, all time points beginning at 4 hours)	reduction of TER with the addition of heparin ([1]; Caco-2 monolayers pretreated with 50 mM sodium chlorate, heparin 500 ng/ml with ligands, vs PBS)	time after treatment at which reductions in TER were evident ([1]; 100 ng/ml)	effect of added agent on proliferative effect of FGF2 and FGF7 ([2]; TM 200 μM, FGF1 added to TM treated cells)	proliferation (in words) ([2]; over three days)	reduced resistance on day 5 ([1]; Caco-2 cells)	increased whole cell number [2]
FGF1: Recombinant human FGF1 from Amgen	35.1±12.3%	45.1±5.2%	restored the ability of FGF2 and FGF7 to reduce TER	still elicited significant reductions in TER	reduced TER compared to PBS	2 h	restored the proliferative capacity of these ligands	did not induce the proliferation		
FGF2: Recombinant human FGF2, produced as described	67.2±25.8%					4 h			43.6±11.1%	24.8±8.8%
B1	61.4±17.3%					4 h			44.4±8.7%	11.4±3.8%
